Some results are limits rather than exact numbers.

The test system of experiment [1] is 25 mer A-T-DNA. The experiment in a line: TM measurement by RT-PCR (HRM/SYBR green), A-T DNA. It counts as binding. The note with it: for shift in TM of A-T DNA: (d/dT) fluorescence (465-510), compared to the control without addition; for TM of 25 mer A-T-DNA in the treated well: control wells 56.1-57.1° C. The procedure:
(§1) The primers listed in Table 4 were purchased from Sigma Aldrich (Israel). Primers number 1 and 3 are complementary and annealed to form CG/GC double-stranded DNA fragment, and primers number 5 and 7 are complementary and annealed to form AT double-stranded DNA fragment. The DNA complementary oligomers were hybridized in a medium salt buffer containing 10 mM NaCl, 10 mM sodium phosphate and 0.1 mM EDTA, pH 7.0. The samples were heated to 90° C. for 5 min, slowly cooled to 20° C. and left at 4° (1 until used for TM measurements with RT-PCR.
(§2) According to this method, 5 μl of a selected double-stranded DNA is incubated with a 5 μl solution of a selected compound at RT for 5 min; 10 μl HRM/SYB (high resolution melting/syber green I) (X2) are then added; and the TM is then measured. The run program for TM measurement is as following: keep temperature of final solution at 25° C. for 5 min, raise temperature up to 99° C. with a rate of 0.1° C./sec, and then cool to 37° C.
(§3) In a further study, the effect of AH-11 as well as three additional similar compounds having the same heterocyclic (pyridine) core on the TM of DNA double-stranded sequences consisting of A-T or C-G base pairs only was tested by RT-PCR as described in Materials and Methods. The additional compounds tested are 4-amino-N-(6-aminopyridin-2-yl)butanamide, N,N′-(pyridine-2,6-diyl)bis(3-aminopropanamide), and N,N′-(pyridine-2,6-diyl)bis(4-aminobutanamide), herein identified […] and AH-14, respectively (chemical structures are shown in Scheme 5). […] Compounds AH-11, AH-12 and AH-13 increased the TM of 25 mer A-T-DNA by 4.2° C., 5.7° C. and 9.9° C., respectively. In all four cases, no effect was observed on the TM of 25 mer C-G-DNA (the TM shift range between 0.3 and 0.8° C.).
(§4) In this study, the ability of monomer units M1-6a, designed to be specific for A-T base pairs only, and M4-4a, designed to be specific for C-G base pairs only, to effectively and selectively bind to DNA double-stranded sequences consisting of A-T or C-G base pairs only was tested using the RT-PCR method as described in Material and Methods. Nevertheless, in order to neutralize a possible influence of the carboxylic groups of these monomers on the specificity and selectivity of the monomers, the compounds practically used were 3-(2-amino-9-(2-((2-(tert-butoxycarbonylamino)ethyl)(2-ethoxy-2-oxoethyl)amino)-2-oxoethyl)-9H-purin-6-ylamino)-N,N,N-trimethylpropan-1-aminium and 3-(9-(2-((2-(tert-butoxycarbonylamino)ethyl)(2-ethoxy-2-oxoethyl)amino)-2-oxoethyl)-2-oxo-2,9-dihydro-1H-purin-6-ylamino)-N,N,N-trimethylpropan-1-aminium, which are analogs of these monomer units M1-6a and M4-4a, respectively, in which the carboxyl groups are protected with ethyl (see Scheme 10 and 17).

Experiment [2] has as its system 25 mer C-G-DNA. Description: TM measurement by RT-PCR (HRM/SYBR green), C-G DNA. In kind it is binding. The note with it: for shift in TM of C-G DNA: (d/dT) fluorescence (465-510), compared to the control without addition; for TM of 25 mer C-G-DNA in the treated well: control wells 84.3-86° C. The procedure:
as §1, §2, §3, §4
The biological activity of the polymers synthesized, i.e., their ability to specifically interact with specific fragments of double-stranded DNA, was tested using the RT-PCR method, as described in Materials and Methods.

Experiment [3] deals with 25 mer A-T-DNA. Description: TM measurement by RT-PCR (HRM/SYBR green), A-T DNA. In kind it is binding. Conditions: incubation time from 5 min to 60 or 100 min.
The subject of experiment [4] is restriction enzyme (satI). Description: Prevention of restriction enzyme digestion of a PCR product (agarose gel). It counts as biochemical. The note with it: for preventing restriction enzyme satI from digesting the DNA fragment: lanes 5+5B, 5+7B, 10+7B compared with cut 5 and cut 10 without AH-13. An excerpt:
This can be seen by comparing lanes “5+5B”, “5+7B” and “[…]” with “cut 5” and “cut 10”, wherein no AH-13 was used.

The subject of experiment [5] is 25 mer A-T-DNA. The experiment in a line: TM of treated duplex DNA by UV spectra at 260 nm, A-T DNA. In kind it is binding. The note with it: UV 260 nm; incubated at 37° C. for 36 hours; TM without compound 53° C. On the procedure:
(§5) Duplex DNA (dsDNA-1,2) sequences are formed by incubating a solution of single-strand DNA-1 and single-strand DNA-2 (1:1) at 90° C. for 5 min, and slowly cooling down to RT for 1-2 hours. Treated Duplex DNA (dsDNA-1,2 bonded to a triplex forming molecule of the invention) is formed by incubating a solution of triplex forming molecule (TFM) of the invention and dsDNA-1,2 (1:1) at 37° C. for 36 hours.
(§6) The melting temperature (TM), i.e., the temperature at which a DNA double helix dissociates into single strands, measurements of Duplex DNA or Treated Duplex DNA are carried out using quartz cuvettes with an optical path length of 1 cm on a Cray 300 UV/vis spectrophotometer interfaced with a computer for data collection and analysis. The temperature is increased from 30° C. to 98° C. at the rate of 1° C./min, and the TM is determined by plotting the first derivative of the absorbance at 260 nm vs. temperature profile. TM is defined as the temperature at which half the molecules are single-stranded.
(§7) In order to test the effect of AH-11, designed to be specific for A-T base pair, on the TM of DNA double-stranded sequences consisting of A-T or C-G base pairs only, two solutions each containing one of the aforesaid sequences were incubated with a solution containing the compound AH-11 at 37° C. for 36 hours, and treated double-stranded DNA were formed. […]

Experiment [6] has as its system 25 mer C-G-DNA. The experiment in a line: TM of treated duplex DNA by UV spectra at 260 nm, C-G DNA. In kind it is binding. The note with it: UV 260 nm; incubated at 37° C. for 36 hours. On the procedure:
as §5, §6, §7

Regarding `NCCCC(=O)Nc1cccc(NC(=O)CCCN)n1` [AH-14, N,N′-(pyridine-2,6-diyl)bis(4-aminobutanamide)], in experiment [1], the “effect on the TM of 25 mer A-T-DNA” value is recorded as “most effective compound” and the “shift in TM of A-T DNA” value came out at 11.7 °C. The “shift in TM of C-G DNA” value in experiment [2] was determined as 0.8 °C.

As to `CC(C)(C)OC(=O)NCCN(CC(=O)O)C(=O)Cn1cnc2c(NCCC[N+](C)(C)C)[nH]c(=O)nc21` [M4-4a, 3-(9-(2-((2-(tert-butoxycarbonylamino)ethyl)(carboxymethyl)amino)-2-oxoethyl)-2-oxo-2,9-dihydro-1H-purin-6-ylamino)-N,N,N-trimethylpropan-1-aminium], in experiment [1], the “effect on the TM of 25 mer A-T-DNA” value was “did not affect at all” and the “TM of 25 mer A-T-DNA in the treated well” value turned out to be 57.4 °C. The “TM of 25 mer C-G-DNA in the treated well” value in experiment [2] was found to be 90.1 °C.

Turning to “3-(9-(2-((2-(tert-butoxycarbonylamino)ethyl)(2-ethoxy-2-oxoethyl)amino)-2-oxoethyl)-2-oxo-2,9-dihydro-1H-purin-6-ylamino)-N,N,N-trimethylpropan-1-aminium [analog of M4-4a]”, in experiment [1], the “effect on the TM of 25 mer A-T-DNA” value is “did not affect” and the “shift in TM of A-T DNA” value came to 0.3 °C. In experiment [2], the “shift in TM of C-G DNA” value was determined as 5.6 °C and the “TM of 25 mer C-G-DNA in the treated well” value was found to be 90.1 °C.

`CC(C)(C)OC(=O)NCCN(CC(=O)O)C(=O)Cn1cnc2c(NCCC[N+](C)(C)C)nc(N)nc21` [M1-6a, 3-(2-amino-9-(2-((2-(tert-butoxycarbonylamino)ethyl)(carboxymethyl)amino)-2-oxoethyl)-9H-purin-6-ylamino)-N,N,N-trimethylpropan-1-aminium]: the “TM of 25 mer A-T-DNA in the treated well” value in experiment [1] was found to be 63 °C. Besides, the “TM of treated 25 mer A-T-DNA upon increasing the incubation time” value in experiment [3] was “No difference”. Moreover, in experiment [2], the “effect on the TM of 25 mer C-G-DNA” value is “did not affect at all” and the “TM of 25 mer C-G-DNA in the treated well” value turned out to be 85.1 °C.

For the molecule `NCCC(=O)Nc1cccc(NC(=O)CCN)n1` [AH-13, N,N′-(pyridine-2,6-diyl)bis(3-aminopropanamide)], in experiment [1], the “shift in TM of A-T DNA” value stood at 9.9 °C. The “interference with satI enzyme activity in lane 10+5B” value in experiment [4] (10 μl PCR product + 5 μl AH-13, both cut and uncut DNA present) is “not sufficient to completely interfere with the enzyme activity”. For the same molecule, the “preventing restriction enzyme satI from digesting the DNA fragment” value in experiment [4] is reported as “capable in a concentration dependent manner of preventing a restriction enzyme (satI)”; in experiment [4] (listed as AH-1), “capable of specifically interfering with the activity of the restriction enzyme satI, in a concentration dependent manner”.

As to `NCCCC(=O)Nc1cccc(N)n1` [AH-12, 4-amino-N-(6-aminopyridin-2-yl)butanamide], the “shift in TM of A-T DNA” value in experiment [1] is 5.7 °C.

Turning to “3-(2-amino-9-(2-((2-(tert-butoxycarbonylamino)ethyl)(2-ethoxy-2-oxoethyl)amino)-2-oxoethyl)-9H-purin-6-ylamino)-N,N,N-trimethylpropan-1-aminium [analog of M1-6a]”, in experiment [1], the “shift in TM of A-T DNA” value was found to be 6.9 °C and the “TM of 25 mer A-T-DNA in the treated well” value was found to be 63 °C. Moreover, in experiment [2], the “effect on the TM of 25 mer C-G-DNA” value is recorded as “did not affect” and the “shift in TM of C-G DNA” value is under 1.0 °C.

For `NCCC(=O)Nc1cccc(N)n1` [AH-11, 3-amino-N-(6-aminopyridin-2-yl)propanamide], in experiment [1], the “shift in TM of A-T DNA” value was found to be 4.2 °C. Moreover, the “TM of 25 mer A-T-DNA after treatment” value in experiment [5] was 85 °C. Besides, in experiment [6], the “effect on the TM of 25 mer C-G-DNA” value was “did not affect at all”.

For the origin of these results see US20130231480A1, “SEQUENCE SPECIFIC DOUBLE-STRANDED DNA/RNA BINDING COMPOUNDS AND USES THEREOF” (GENEARREST LTD, priority 2010, published 2013).
